# Columns and labels:
# [1] = (§1) Inhibition of replicating Mycobacterium tuberculosis H37Rv NDH assessed as cell growth inhibition after 7 days by MABA method; conditions: 168 h
# [2] = Metabolic stability in human liver microsomes assessed as half life for metabolic turnover at 0.1 to 10 uM preincubated for 60 mins in presence of NADPH measured up to 60 mins by mass spectroscopic analysis; type: ADME, microsome
# [3] = Intrinsic clearance in human microsomes; type: ADME, Microsome; conditions: read-out: CLH
# HepG2 = assay: Cytotoxicity against human HepG2 cells after 24 hrs in presence of glucose by MTT assay; type: cell-based; conditions: hepg2, 24 h
# [4] = Metabolic stability in mouse liver microsomes assessed as half life for metabolic turnover at 0.1 to 10 uM preincubated for 60 mins in presence of NADPH measured up to 60 mins by mass spectroscopic analysis; type: ADME, microsome
# [5] = Aqueous solubility of compound; type: physicochemical; conditions: buffer
# [6] = Metabolic stability in rat liver microsomes assessed as half life for metabolic turnover at 0.1 to 10 uM preincubated for 60 mins in presence of NADPH measured up to 60 mins by mass spectroscopic analysis; type: ADME, microsome
# [7] = Intrinsic clearance in rat hepatocytes assessed per million cells; type: ADME, cell-based, Hepatocyte; conditions: read-out: CLH
# [8] = test system: Mycobacterium tuberculosis H37Rv; assay: as §1
# [9] = Lipophilicity, logD of compound at pH 7.4; conditions: buffer
# [10] = Protein binding in human plasma at 1 uM after 18 hrs by equilibrium dialysis; type: ADME, cell-free; conditions: read-out: PPB (converted)
structure (smiles),measurement,setting,value
O=c1c(Cl)c(-c2ccc(N3CCC(F)CC3)cc2)[nH]c2ccccc12,IC50,[1],> 10000 nM
Cc1c(-c2ccc(N3CC(C)(O)C3)cc2)[nH]c2cc(F)cc(F)c2c1=O,IC50,[1],> 10000 nM
O=c1c(Br)c(-c2ccc(N3CCC(F)CC3)cc2)[nH]c2ccccc12,IC50,[1],> 10000 nM
Cc1c(-c2cccc(N3CCCCC3)c2)[nH]c2cc(F)cc(F)c2c1=O,IC50,[1],> 10000 nM
Cc1c(-c2ccc(N3CC[C@@H](F)C3)cc2)[nH]c2cc(F)cc(F)c2c1=O,half-life at up to 10 µM,[2],10.2 min
same,microsomal CLint,[3],175 µL/min/mg
same,Activity,HepG2,150.6 µM
same,half-life at up to 10 µM,[4],4.4 min
same,solubility,[5],0.9 µM
same,half-life at up to 10 µM,[6],10.6 min
same,hepatocyte CLint,[7],118 µL/min/1e6 cells
same,IC90,[8],500 nM
same,IC50,[1],230 to 231 nM
same,logD,[9],3.8
same,"fraction unbound at 18 h, 1 µM",[10],0.009
COc1ccc2c(=O)cc(-c3ccc(N4CCCCC4)cc3)[nH]c2c1,IC50,[1],> 10000 nM
Cc1c(-c2ccc(-n3cccc3C#N)cc2)[nH]c2cc(F)cc(F)c2c1=O,IC50,[1],> 10000 nM
O=c1c(Cl)c(-c2ccc(N3CCCCC3)cc2)[nH]c2ccccc12,IC50,[1],1560 nM
Cc1c(-c2ccc(N3CCCC(C)C3)cc2)[nH]c2cc(F)cc(F)c2c1=O (configuration not stated),half-life at up to 10 µM,[2],7.9 min
same,Activity,HepG2,> 100 µM
same,half-life at up to 10 µM,[4],22.3 min
same,half-life at up to 10 µM,[6],10.8 min
same,IC90,[8],630 nM
same,IC50,[1],367 to 370 nM
Cc1c(-c2ccc(N3CCC(Cc4ccccc4)CC3)cc2)[nH]c2ccccc2c1=O,IC50,[1],> 10000 nM
Cc1c(-c2ccc(-n3cccc3)cc2)[nH]c2cccc(F)c2c1=O,IC50,[1],710 nM
COc1cc2[nH]c(-c3ccc(N4CCCCC4)cc3)c(C)c(=O)c2cc1Cl,IC50,[1],> 10000 nM
COc1ccc2c(=O)c(C)c(-c3ccc(N4CCC(F)CC4)cc3)[nH]c2c1,IC50,[1],1320 nM
Cc1c(-c2ccc(N3CCCCCC3)cc2)[nH]c2cc(F)cc(F)c2c1=O,microsomal CLint,[3],> 300 µL/min/mg
same,solubility,[5],< 0.1 µM
same,hepatocyte CLint,[7],243 µL/min/1e6 cells
same,IC50,[1],490 nM
same,logD,[9],4.8
same,"fraction unbound at 18 h, 1 µM",[10],0.006
Cc1c(-c2ccc(N3CC[C@@H]3C(=O)N(C)C)cc2)[nH]c2cc(F)cc(F)c2c1=O,IC50,[1],> 10000 nM
COc1ccc2c(=O)c(Cl)c(-c3ccc(N4CCCCC4)cc3)[nH]c2c1,microsomal CLint,[3],> 300 µL/min/mg
same,solubility,[5],0.5 µM
same,hepatocyte CLint,[7],48.9 µL/min/1e6 cells
same,IC50,[1],2820 nM
same,logD,[9],3.6
same,"fraction unbound at 18 h, 1 µM",[10],0.012
Cc1c(-c2ccc(-n3cc(F)c(F)c3)cc2)[nH]c2cc(F)cc(F)c2c1=O,half-life at up to 10 µM,[2],≥ 60 min
same,half-life at up to 10 µM,[4],≥ 60 min
same,half-life at up to 10 µM,[6],≥ 60 min
same,IC90,[8],> 10000 nM
same,IC50,[1],> 10000 nM
Cc1c(-c2ccc(-n3cccn3)cc2)[nH]c2cc(F)cc(F)c2c1=O,IC50,[1],> 10000 nM
Cc1c(-c2ccc(N3CCC[C@@H]3C(=O)NC3CCOCC3)cc2)[nH]c2cc(F)cc(F)c2c1=O,IC50,[1],> 10000 nM
Cc1c(-c2ccc(-n3cccc3)c(Cl)c2)[nH]c2cc(F)cc(F)c2c1=O,IC50,[1],> 10000 nM
Cc1c(-c2ccc(N3CCCCC3)cc2)[nH]c2cc(F)ccc2c1=O,IC50,[1],> 10000 nM
Cc1c(-c2ccc(N3CCC[C@@H](C)C3)cc2)[nH]c2cc(F)cc(F)c2c1=O,microsomal CLint,[3],> 300 µL/min/mg
same,solubility,[5],< 0.5 µM
same,hepatocyte CLint,[7],183 µL/min/1e6 cells
same,IC50,[1],470 nM
same,logD,[9],4.7
same,"fraction unbound at 18 h, 1 µM",[10],0.005
Cc1c(-c2ccc(N3CCCCC3)cc2)[nH]c2ccc(F)cc2c1=O,IC50,[1],1830 nM
Cc1c(-c2ccc(N3CCC[C@H]3CO)cc2)[nH]c2cc(F)cc(F)c2c1=O,microsomal CLint,[3],> 300 µL/min/mg
same,solubility,[5],4 µM
same,hepatocyte CLint,[7],36.5 µL/min/1e6 cells
same,IC50,[1],1590 nM
same,logD,[9],> 3.4
same,"fraction unbound at 18 h, 1 µM",[10],0.045
COc1ccc2c(=O)c(Cl)c(-c3ccc(N4CCC(F)CC4)cc3)[nH]c2c1,IC50,[1],> 10000 nM
Cc1c(-c2ccc(N3CCC(F)CC3)cc2)[nH]c2ccccc2c1=O,IC50,[1],> 10000 nM
COc1cc2[nH]c(-c3ccc(N4CCCCC4)cc3)c(C)c(=O)c2cc1F,microsomal CLint,[3],> 300 µL/min/mg
same,solubility,[5],2 µM
same,hepatocyte CLint,[7],231 µL/min/1e6 cells
same,IC50,[1],520 nM
same,logD,[9],3.9
same,"fraction unbound at 18 h, 1 µM",[10],0.012
Cc1c(-c2ccc(N3CCC(F)CC3)cc2)[nH]c2cc(F)cc(F)c2c1=O,half-life at up to 10 µM,[2],5.7 min
same,Activity,HepG2,102.2 µM
same,half-life at up to 10 µM,[4],4.4 min
same,half-life at up to 10 µM,[6],8.4 min
same,IC90,[8],1830 nM
same,IC50,[1],940 to 950 nM
O=c1cc(-c2ccc(N3CCCCC3)cc2)[nH]c2ccccc12,IC50,[1],> 10000 nM
Cc1c(-c2ccc(N3CCC(C(F)(F)F)CC3)cc2)[nH]c2cc(F)cc(F)c2c1=O,IC50,[1],> 10000 nM
Cc1c(-c2ccc(N3CCC[C@H]3COCc3ccccc3)cc2)[nH]c2cc(F)cc(F)c2c1=O,IC50,[1],960 nM
Cc1c(-c2ccc(N3CCC(Cc4ccccc4)CC3)cc2)[nH]c2ccc(F)cc2c1=O,IC50,[1],> 10000 nM
COc1ccc2c(=O)cc(-c3ccc(N4CCC(F)CC4)cc3)[nH]c2c1,IC50,[1],> 10000 nM
Cc1c(-c2ccc(N3CC(F)(F)C3)cc2)[nH]c2cc(F)cc(F)c2c1=O,IC50,[1],1530 nM
Cc1c(-c2ccc(N3CCN(C)CC3)cc2)[nH]c2cc(F)cc(F)c2c1=O,IC50,[1],> 10000 nM
COc1ccc2c(=O)c(C)c(-c3ccc(-n4cc(F)c(F)c4)cc3)[nH]c2c1,IC50,[1],> 10000 nM
Cc1c(-c2ccc(N3CCC(C)CC3)cc2)[nH]c2cc(F)cc(F)c2c1=O,half-life at up to 10 µM,[2],< 10 min
same,Activity,HepG2,> 100 µM
same,half-life at up to 10 µM,[4],< 10 min
same,half-life at up to 10 µM,[6],< 10 min
same,IC90,[8],1930 nM
same,IC50,[1],610 to 611 nM
Cc1c(-c2ccc(N3CCN(Cc4ccccc4)CC3)cc2)[nH]c2ccc(F)cc2c1=O,IC50,[1],> 10000 nM
Cc1c(-c2ccc(NCc3ccccc3)cc2)[nH]c2cc(F)cc(F)c2c1=O,IC50,[1],> 10000 nM
Cc1c(-c2ccc(-n3ccc4ccccc43)cc2)[nH]c2cc(F)cc(F)c2c1=O,IC50,[1],> 10000 nM
COc1cc2[nH]c(-c3ccc(-n4cc(F)c(F)c4)cc3)c(C)c(=O)c2cc1Cl,IC50,[1],> 10000 nM
Cc1c(-c2ccc(-n3cccc3)cc2F)[nH]c2cc(F)cc(F)c2c1=O,IC50,[1],> 10000 nM
Cc1c(-c2ccc(N3CCC[C@@H]3C(=O)N(C)C)cc2)[nH]c2cc(F)cc(F)c2c1=O,IC50,[1],> 10000 nM
COc1ccc2c(=O)c(C)c(-c3ccc(N4CCC(Cc5ccccc5)CC4)cc3)[nH]c2c1,IC50,[1],> 10000 nM
COc1cc2[nH]c(-c3ccc(N4CCCCC4)cc3)c(C)c(=O)c2cc1OC,IC50,[1],> 10000 nM
Cc1c(-c2ccc(N3CCN(Cc4ccccc4)CC3)cc2)[nH]c2ccccc2c1=O,IC50,[1],5740 nM
Cc1c(-c2ccc(N3CCCC(C)(O)C3)cc2)[nH]c2cc(F)cc(F)c2c1=O (configuration not stated),IC50,[1],5010 nM
Cc1c(-c2ccc(N3CCC[C@@H]3C(=O)N3CCC(F)CC3)cc2)[nH]c2cc(F)cc(F)c2c1=O,IC50,[1],> 10000 nM
Cc1c(-c2ccc(N3CCC[C@@H]3CO)cc2)[nH]c2cc(F)cc(F)c2c1=O,microsomal CLint,[3],> 300 µL/min/mg
same,solubility,[5],4 µM
same,hepatocyte CLint,[7],36.5 µL/min/1e6 cells
same,IC50,[1],320 nM
same,logD,[9],> 3.4
same,"fraction unbound at 18 h, 1 µM",[10],0.045
Cc1c(-c2ccc(N3CCCCC3)cc2)[nH]c2cc(Cl)ccc2c1=O,IC50,[1],> 10000 nM
Cc1c(-c2ccc(N3CCC(C)(O)C3)cc2)[nH]c2cc(F)cc(F)c2c1=O (configuration not stated),IC50,[1],> 10000 nM
Cc1c(-c2ccc(N3CCC[C@@H]3C(=O)N3CCOCC3)cc2)[nH]c2cc(F)cc(F)c2c1=O,IC50,[1],> 10000 nM
Cc1c(-c2ccc(N3CCCCC3)cc2)[nH]c2cc(F)cc(F)c2c1=O,half-life at up to 10 µM,[2],7.31 min
same,Activity,HepG2,> 100 µM
same,half-life at up to 10 µM,[4],8.27 min
same,half-life at up to 10 µM,[6],8.3 min
same,IC90,[8],780 nM
same,IC50,[1],270 nM
Cc1c(-c2ccc(N3CCCC(F)(F)C3)cc2)[nH]c2cc(F)cc(F)c2c1=O,half-life at up to 10 µM,[2],17.4 min
same,half-life at up to 10 µM,[4],16.2 min
same,half-life at up to 10 µM,[6],13.7 min
same,IC90,[8],830 nM
same,IC50,[1],360 to 361 nM
Cc1c(-c2ccc(N(C)C)cc2)[nH]c2cc(F)cc(F)c2c1=O,IC50,[1],410 nM
Cc1c(-c2ccc(N3CCC[C@H](C)C3)cc2)[nH]c2cc(F)cc(F)c2c1=O,half-life at up to 10 µM,[2],8.54 min
same,microsomal CLint,[3],> 300 µL/min/mg
same,Activity,HepG2,85.54 µM
same,half-life at up to 10 µM,[4],7.65 min
same,solubility,[5],< 0.3 µM
same,half-life at up to 10 µM,[6],5.72 min
same,hepatocyte CLint,[7],91.2 µL/min/1e6 cells
same,IC90,[8],660 nM
same,IC50,[1],400 to 470 nM
same,logD,[9],> 3.2
same,"fraction unbound at 18 h, 1 µM",[10],0.007
COc1cc(OC)c2c(=O)c(C)c(-c3ccc(N4CCCCC4)cc3)[nH]c2c1,IC50,[1],> 10000 nM
Cc1c(-c2ccc(N3CCC[C@@H]3C(=O)NC(C)(C)C)cc2)[nH]c2cc(F)cc(F)c2c1=O,IC50,[1],960 nM
COc1ccc2c(=O)c(C)c(-c3ccc(N4CCN(c5ccccc5)CC4)cc3)[nH]c2c1,IC50,[1],> 10000 nM
COc1ccc2c(=O)c(C)c(-c3ccc(N4CCN(Cc5ccccc5)CC4)cc3)[nH]c2c1,IC50,[1],> 10000 nM
Cc1c(-c2ccc(N3CCC(F)(F)CC3)cc2)[nH]c2cc(F)cc(F)c2c1=O,IC50,[1],> 10000 nM
Cc1c(-c2ccc(N3CC[C@@H]3C(=O)NC(C)(C)C)cc2)[nH]c2cc(F)cc(F)c2c1=O,IC50,[1],> 10000 nM
O=c1c(Br)c(-c2ccc(N3CCCCC3)cc2)[nH]c2ccccc12,IC50,[1],600 nM
Cc1c(-c2ccc(N3CCC4(CC3)CC4)cc2)[nH]c2cc(F)cc(F)c2c1=O,IC50,[1],> 10000 nM

# From ChEMBL document CHEMBL4049411, “Rational Design, Synthesis, and Biological Evaluation of Heterocyclic Quinolones Targeting the Respiratory Chain of Mycobacterium tuberculosis” (J Med Chem, 2017)
